Earlier results in patent US20170209579A1, “NON-INVASIVE RADIOFREQUENCY FIELD TREATMENT FOR CANCER THERAPY” (Baylor College of Medicine, priority 2014, published 2017).

Test system: tumor
Settings: Monsky et al.; cited from earlier work

COc1cccc2c1C(=O)c1c(O)c3c(c(O)c1C2=O)C[C@@](O)(C(=O)CO)C[C@@H]3O[C@H]1C[C@H](N)[C@H](O)[C@H](C)O1 [free doxorubicin]
accumulation and retention in the tumor after conventional RFA: not
